This is an account of results in article PMC4526202, “Identification of a botanical inhibitor of intestinal diacylglyceride acyltransferase 1 activity via in vitro screening and a parallel, randomized, blinded, placebo-controlled clinical trial” (Nutrition & Metabolism, 2015).

In test [1] the test system is DGAT1 activity / TG synthesis in HEK293H cells. The test is described as follows: Cellular DGAT1 assay: [14C]-glycerol incorporation into TG. The class given is cell-based, human. An excerpt:
Three different cell lines, human colorectal (HT-29), human embryonic kidney (HEK293H) and human hepatic (HEPG2) were screened for the presence of both DGAT1 and DGAT2 protein. The HEK293H cell line contained DGAT1 and little to no DGAT2 protein (Additional file 1: Figure S1), therefore, a cellular DGAT1 assay was established in HEK293H cells to measure the synthesis of TG. HEK293 cell line has previously been reported to contain only DGAT1 and not DGAT2, and has been validated as an in vitro model to determine TG synthesis via DGAT1 [34].
The DGAT1 activity was determined by measuring the incorporation of [^14C]-glycerol (1 μCi/mL, Perkin-Elmer) into [^14C]-TG during a 5 h incubation with 0.3 mM oleic acid/BSA in HEK293H cells. […] Silica gel spots corresponding to lipid species were scraped into scintillation vials and the incorporated radioactivity was quantified using a MicroBeta TriLux (Perkin-Elmer). […]
Dose response curves for the cell-free DGAT1 assay were fitted with a log (inhibitor) vs. response, variable slope (four parameters) equation. Cellular DGAT1 assay data is shown as mean ± standard error of mean (SEM) and was analyzed by two-way ANOVA with Bonferroni's multiple comparison test. […] Area under the curve (AUC) was determined using the trapezoidal method. […]

Test [2] deals with T1, DGAT1 (human small intestinal microsomal preparation) (Homo sapiens, UniProt O75907).
T1 construct: using a human small intestinal microsomal preparation (BD Biosciences) as the enzyme source; tissue BD Biosciences; host or cells: human small intestine microsomes
T1 sequence (O75907 1-488): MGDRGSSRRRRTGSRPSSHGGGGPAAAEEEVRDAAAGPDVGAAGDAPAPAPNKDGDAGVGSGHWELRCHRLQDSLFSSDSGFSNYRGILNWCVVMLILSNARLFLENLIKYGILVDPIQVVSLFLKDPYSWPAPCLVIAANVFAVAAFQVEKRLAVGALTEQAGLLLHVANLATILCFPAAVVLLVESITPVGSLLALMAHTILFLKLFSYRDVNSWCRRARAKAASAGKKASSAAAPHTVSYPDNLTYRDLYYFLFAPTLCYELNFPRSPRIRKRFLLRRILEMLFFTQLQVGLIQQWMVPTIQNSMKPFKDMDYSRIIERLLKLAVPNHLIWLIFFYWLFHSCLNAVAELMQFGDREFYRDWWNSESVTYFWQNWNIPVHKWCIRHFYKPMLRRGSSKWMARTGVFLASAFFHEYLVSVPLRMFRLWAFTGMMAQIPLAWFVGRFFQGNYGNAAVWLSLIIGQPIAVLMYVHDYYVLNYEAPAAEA
Description: Cell-free DGAT1 enzyme assay (LC-MS readout). The class given is biochemical. The procedure:
A cell-free DGAT1 assay was established using a human small intestinal microsomal preparation (BD Biosciences) as the enzyme source, and dioleoyl glycerol and palmitoleoyl Coenzyme A (CoA) as substrates (Sigma). Dioleoyl glycerol was dissolved in DMSO and diluted to 600 μM with 175 mM Tris–HCl and 100 mM MgCl2 (Tris/MgCl2) buffer. Palmitoleoyl CoA was dissolved in1.5 % acetone water solution (Fisher Scientific) to 150 μM. Microsomes were diluted to 25 μg/mL with 3.5 mg/mL BSA in Tris MgCl2 buffer. To a 1.5 mL tube, 67 μL of each palmitoleoyl CoA s and dioleoyl glycerol solutions (1:1 ratio) were added and the reaction was initiated by the addition of 67 μL of microsomes. The reaction was incubated in a 37 °C water bath for 60 min. The reaction was stopped by the addition of 1 mL of extraction solvent (isopropanol:dichloromethane (1:1 v/v) with 2.4 % formic acid) containing 1 μg/mL internal standard (glyceryl triolein, Sigma) to each tube and mixed by vortexing. The tubes were centrifuged at 10,000Xg for 3 min. 500 μL of the bottom phase was filtered through a Millex-HV syringe driven filter unit with tube outlet (PVDF @ 0.45 μm, Millipore) and transferred to LC-MS vials (12x32 mm glass screw neck, preslit cap & PTFE/silicone septa, Waters). Phytochemicals (Sigma), botanical extracts and positive control were diluted in DMSO and added to the reaction with the substrates at the desired concentration. The DGAT1 inhibitor A922500 (Tocris) was used as positive control at a concentration of 40 nM.
Refer to Table 3 for the mobile phase program. Solvent A: 0.1 % ammonium acetate in water; Solvent B: 0.1 % acetic acid in acetonitrile; Solvent C: 0.1 % acetic acid in isopropanol; all solvents were from Fisher Scientific. Injection volume: 10 μL. Column: Acquity BEH C18 1.7 μm, 2.1 x 50 mm. Effluent from the column was directed to the electrospray source of the mass spectrometer. Electrospray conditions: positive ion mode; cone voltage: […]; desolvation temperature: 450 °C; source temperature: 140 °C; nebulizer gas flow: 800 L/h; cone gas flow: 10 L/h. The mass spectrometer was operated at 20,000 resolving power and scans from m/z 100–1200 were acquired with a cycle time of 0.25 s. Selected ion chromatograms were plotted for the following: m/z 875 representing the ammoniated molecular ion for triacylglycerol reaction product containing 2 oleic acid and 1 palmitoleic acid moieties (C18:1/C18:1/C16:1); m/z 903 for the ammoniated molecular ion of glyceryl triolein (C18:1/C18:1/C18:1) internal standard. Quantification was determined based on area counts of the product relative to the internal standard.
Dose response curves for the cell-free DGAT1 assay were fitted with a log (inhibitor) vs. response, variable slope (four parameters) equation. Cellular DGAT1 assay data is shown as mean ± standard error of mean (SEM) and was analyzed by two-way ANOVA with Bonferroni's multiple comparison test. The primary outcome variable, serum TG level, is presented as mean ± SEM of baseline (fasting) subtracted change in serum TG after the HFM challenge. Area under the curve (AUC) was determined using the trapezoidal method. Comparisons between groups were made using unpaired t-test with Welch’s correction. A significant effect of investigational product was defined as P < 0.05. All statistical analyses were done using Prism-Graph Pad Software (San Diego, CA).

Where [3] appears, read: single phytochemicals, mean of duplicates.

As a reminder, the IC50 is the point on the concentration scale where inhibition reaches its midpoint. For `O=C(Nc1ccccc1)Nc1ccc(-c2ccc(C(=O)[C@@H]3CCC[C@H]3C(=O)O)cc2)cc1` [A-922500], the “oleic acid induced DGAT1 enzyme activity as measured by 14C label TG levels” value in test [1] was “inhibited”. Further, the IC50 in test [2] (synthetic inhibitor) worked out at 40 nM; in test [2] (synthetic inhibitor, listed as A922500), 39.9 nM.

As to `Oc1cc(O)c2cc(O)c(-c3ccc(O)c(O)c3)[o+]c2c1` [Cyanidin Chloride], the IC50 in test [2] (setting [3]) was determined as 3060 nM.

Take `O=c1oc2c(O)c(O)cc3c(=O)oc4c(O)c(O)cc1c4c23` [Ellagic Acid]: 3450 nM corresponded to half-maximal inhibition in test [2] (setting [3]) (IC50).

In test [2] (setting [3]), `O=C(O[C@@H]1Cc2c(O)cc(O)cc2O[C@@H]1c1cc(O)c(O)c(O)c1)c1cc(O)c(O)c(O)c1` [EGCG, Epigallocatechin Gallate] yielded an IC50 of 667 nM.

For the compound `O=C(O)c1cc(O)c(O)c(O)c1` [Gallic Acid], the IC50 in test [2] (setting [3]) was determined as 2670 nM.

In test [2] (setting [3]), Punicalagins gave a half-inhibitory concentration (IC50) of 259 nM.
